{"source": "patent US20090068286A1", "about": "“METHOD OF TREATING CANCER BY ADMINISTRATION OF 5-SUBSTITUTED NUCLEOSIDES” (RESprotect, GmbH, priority 2007, published 2009)", "key": {"DT-diaphorase (DT-D)": {"test_system": "DT-diaphorase (DT-D)", "test": "DT-diaphorase activity in cell extracts (dicoumarol-inhibitable NAD(P)H: dichlorophenol indophenol reductase)", "assay_type": "cell-based", "protocol": "The measurement of the DT-diaphorase (DT-D) was effected as a dicoumarol-inhibitable NAD(P)H: dichlorophenol indophenol reductase, as described in Hodnick et al., Anal. Biochem 252(1), 1997, 165-168 (incorporated by reference herein in its entirety). Extracts were tested of a similar number of cells which had been treated with DOX±BVDU for DT-D activity."}, "STAT3": {"test_system": "STAT3", "test": "Western Blot analysis of survival pathways: STAT3", "assay_type": "cell-based", "conditions": "after DOX treatment, recovery phase: only BVDU given, no cytostatic", "protocol": "Different “survival pathways” were tested by means of Western Blot analysis. The analyses were implemented according to standard methods, as is described in Sambrook et al., 2001, Molecular Cloning (3rd ed.). Antibody dilutions: P-STAT3 (cell signaling) 1: 500, JUN-D (Santa Cruz, Calif.) 1: 1,000.\nThe densitometrically determined content of oncogene proteins JUN-D and STAT3 was reduced by a quarter or two thirds after DOX treatment in the recovery phase (r=recovery phase). In the “recovery” only BVDU is given, no cytostatic."}, "[1]": {"test_system": "uridine phosphorylase (UPase)", "test": "UPase expression in human pancreas carcinoma cell lines", "assay_type": "cell-based", "description": "BVDU downregulates uridine phosphorylase (UPase) expression in BxPC-3 and AsPC-1 human pancreas carcinoma cell lines. […] In squamous cell carcinoma, high staining of UPase in primary tumors was frequently associated with the presence of lymph node metastases and lower overall survival."}, "[2]": {"test_system": "advanced pancreatic adenocarcinoma", "test": "Pilot study GEM + CIS + BVDU in patients", "assay_type": "in vivo, human", "protocol": "Pilot study: 13 Patients (mean age 61, 69% males, 4 stage III, 9 stage IV) with advanced pancreatic adenocarcinoma were treated with i.v. 1.000 mg/m^2 GEM over 30 min on days 1 and 15 of a 28-day schedule. CIS was administered at 50 mg/m^2. BVDU treatment took place on the same day and for four days after chemotherapy in the recovery phase (each four 125 mg tablets per day, resulting in a total dose of 6.000 mg per treatment cycle). As control, data were used of patients of a preceding study which were treated with GEM and CIS, but not with BVDU. With the intention to obtain a control group with a similar proportion of stage IV and stage III diseases as the 13 patients of the pilot study, […] (6 stage III, 15 stage IV) of 96 patients were selected from the Heinemann study by random generator.\nEvaluation: Efficacy was measured by overall survival, objective tumor response rate (ORR, according to WHO criteria in the pilot study and RECIST criteria in the dose finding study) and time to progression (TTP) from the first administration onwards. Serum CA19-9 levels were measured at the start and end of each treatment cycle. Safety was evaluated according to NCI-CTC scale.\nEvaluation of Progression: Patients were evaluated every five weeks.\nStatistical Methods: Survival curves were generated using the Kaplan-Meier method; survival distributions were compared by the log-rank test (Cox-Mantel), and median survival by the Box and Whisker plot."}, "AH13r sarcoma cells": {"test_system": "AH13r sarcoma cells", "test": "Number of AH13r cells under cytostatic ± BVDU and in the recovery phase", "assay_type": "cell-based, rat", "description": "AH13r cells were subjected to increasing doses of the cytostatic mitomycin C (MMC). […] This inhibitory effect was maintained even after discontinuation of the cytostatic in the next cycle, in the so-called recovery phase. The cells without MMC and BVDU continued to grow without inhibition."}, "[3]": {"conditions": "13 patients, BVDU co-treatment with GEM + CIS"}, "[4]": {"conditions": "BVDU co-treatment with GEM + CIS"}}}
{"smiles": "O=c1[nH]c(=O)n([C@H]2C[C@H](O)[C@@H](CO)O2)cc1/C=C/Br", "note": "[BVDU, (E)-5-(2-bromovinyl)-2′-deoxyuridine]", "values": [{"measurement": "DT-D activity", "setting": "DT-diaphorase (DT-D); BVDU alone", "result": "increases the DT-D activity constantly, but in part only weakly"}, {"measurement": "DT-D activity relative to control cells or cells treated solely with DOX", "setting": "DT-diaphorase (DT-D); cells treated with DOX±BVDU", "result": "approximately threefold"}, {"measurement": "Reduction of STAT3 protein content (densitometry)", "setting": "STAT3", "result": "approximately two thirds"}, {"measurement": "UPase expression", "setting": "[1]; AsPC-1 human pancreas carcinoma cell line", "result": "downregulates"}, {"measurement": "UPase expression", "setting": "[1]; BxPC-3 human pancreas carcinoma cell line", "result": "downregulates"}, {"measurement": "Median survival", "setting": "[2]; [3]", "result": 447, "unit": "days"}, {"measurement": "Median time to progression (TTP)", "setting": "[2]; [3]", "result": 280, "unit": "days"}, {"measurement": "Remissions / response rate", "setting": "[2]; 13 patients, WHO criteria, BVDU co-treatment with GEM + CIS", "result": 33, "unit": "%"}, {"measurement": "Patients who live more than two years", "setting": "[2]; [4]", "result": 23, "unit": "%"}, {"measurement": "Patients who lived or have lived longer than one year", "setting": "[2]; [4]", "result": 77, "unit": "%"}, {"measurement": "Number of patients living longer than one year after first treatment", "setting": "[2]; BVDU-treatment group", "result": "Ten of 13"}, {"measurement": "Number of patients living more than two years", "setting": "[2]; BVDU-treatment group", "result": "three"}, {"measurement": "Toxic effect on AH13r cells", "setting": "AH13r sarcoma cells; BVDU given alone", "result": "no toxic effect"}, {"measurement": "Cell growth in the recovery phase", "setting": "AH13r sarcoma cells; after MMC+BVDU, cytostatic discontinued, cells continued to receive BVDU", "result": "greatly inhibited in their growth"}]}
